The text below walks through data of US8207172B2 (Bayer Intellectual Property GmbH, priority 2004, dated 2012).

Assay [1] relates to A431 cells (human epidermoid carcinoma). As to the kind of experiment: In vitro tumor cell proliferation assay (Cell Titer-Glo luminescent cell viability), A431. Type of assay: cell-based. As to conditions: A-431, 72 h, 72 hours of drug exposure, ATP luminescence readout, read-out: IC50, anti-proliferative activity (inhibition of cell proliferation). Summed up: (§1)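 CellTiter-Glo luminescence (ATP content of metabolically active cells) after 72 h compound exposure at 37° C gave IC50s.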

The subject of assay [2] is BT474 (human breast carcinoma). Kind of assay: In vitro tumor cell proliferation assay (Cell Titer-Glo luminescent cell viability), BT474. The following applies: BT-474, 72 h, BT474 cells, 72 hours of drug exposure, ATP luminescence readout, read-out: IC50, anti-proliferative activity (inhibition of cell proliferation). It counts as cell-based. Summed up: as §1

Where a name gives a salt, the structure may show the parent alone.

For the molecule `O=C(Cn1ncc2c1CCc1c-2sc2ncnc(Nc3ccc(OCc4cccc(F)c4)c(Cl)c3)c12)N1CC[C@@H](O)C1` [Example 206, (3R)-1-{[6-({3-chloro-4-[(3-fluorobenzyl)oxy]phenyl}amino)-4,5-dihydro-3H-pyrimido[5′,4′:4,5]thieno[2,3-e]indazol-3-yl]acetyl}pyrrolidin-3-ol], the values for the IC50 in assay [1] and in assay [2] were not above 5 µM and not above 1 µM, respectively.
With `O=C(Cn1ncc2c1CCc1c-2sc2ncnc(Nc3ccc(OCc4cccc(F)c4)c(Cl)c3)c12)N1CC[C@H](O)C1` [Example 214, 1-{[6-({3-chloro-4-{(3-fluorobenzyl)oxy]phenyl}amino)-4,5-dihydro-3H-pyrimido[5′,4′:4,5]thieno[2,3-e]indazol-3-yl]acetyl}pyrrolidin-3-ol], the IC50 is not above 5 µM in assay [1] and not above 1 µM in assay [2].
Regarding `CN1CCN(CCn2cc3c(n2)CCc2c-3sc3ncnc(Nc4ccc(Br)c(Cl)c4)c23)CC1` [Example 50, N-(4-bromo-3-chlorophenyl)-2-[2-(4-methylpiperazin-1-yl)ethyl]-4,5-dihydro-2H-pyrimido[5′,4′:4,5]thieno[2,3-e]indazol-6-amine], the IC50 in assay [1] and in assay [2] was not above 5 µM in each case.
Turning to `CN(C)C1CCN(CCn2cc3c(n2)CCc2c-3sc3ncnc(Nc4ccc(OCc5cccc(F)c5)c(Cl)c4)c23)C1` (stereo not drawn) [Example 66, N-{3-chloro-4-[(3-fluorobenzyl)oxy]phenyl}-2-{2-[3-(dimethylamino)pyrrolidin-1-yl]ethyl}-4,5-dihydro-2H-pyrimido[5′,4′:4,5]thieno[2,3-e]indazol-6-amine], the IC50 was not above 5 µM in assay [1] and not above 1 µM in assay [2].
On the same counts, the results for `OCCN(CCO)C[C@@H](O)Cn1cc2c(n1)CCc1c-2sc2ncnc(Nc3ccc(OCc4cccc(F)c4)c(Cl)c3)c12` [Example 144, (2R)-1-[bis(2-hydroxyethyl)amino]-3-[6-({3-chloro-4-[(3-fluorobenzyl)oxy]phenyl}amino)-4,5-dihydro-2H-pyrimido[5′,4′:4,5]thieno[2,3-e]indazol-2-yl]propan-2-ol] are not above 50 µM and not above 1 µM.
Turning to `CN(C)[C@H]1CCN(CCn2ncc3c2CCc2c-3sc3ncnc(Nc4ccc(F)c(Cl)c4)c23)C1` [Example 95, N-(3-chloro-4-fluorophenyl)-3-{2-[3-(dimethylamino)pyrrolidin-1-yl]ethyl}-4,5-dihydro-3H-pyrimido[5′,4′:4,5]thieno[2,3-e]indazol-6-amine], the results for the IC50 in assay [1] and in assay [2] were not above 5 µM and not above 1 µM, respectively.
Consider `CCN1CCN(CCn2ncc3c2CCc2c-3sc3ncnc(Nc4ccc5c(cnn5Cc5cccc(F)c5)c4)c23)CC1` [Example 294, 3-[2-(4-ethylpiperazin-1-yl)ethyl]-N-[1-(3-fluorobenzyl)-1H-indazol-5-yl]-4,5-dihydro-3H-pyrimido[5′,4′:4,5]thieno[2,3-e]indazol-6-amine], for which the IC50 in assay [1] is not above 50 µM; in assay [2], not above 1 µM.
As for `CN1CCN(CCn2cc3c(n2)CCc2c-3sc3ncnc(Nc4ccc5c(cnn5Cc5cccc(F)c5)c4)c23)CC1` [Example 277], the IC50 is not above 5 µM in assay [1] and not above 1 µM in assay [2].
Turning to `C=CCn1cc2c(n1)CCc1c-2sc2ncnc(Nc3ccc(OCc4cccc(F)c4)c(Cl)c3)c12` [Example 128, 2-allyl-N-{3-chloro-4-[(3-fluorobenzyl)oxy]phenyl}-4,5-dihydro-2H-pyrimido[5′,4′:4,5]thieno[2,3-e]indazol-6-amine trifluoroacetate (Salt)], the values for the IC50 in assay [1] and in assay [2] were not above 50 µM and not above 1 µM, respectively.
Take `Fc1cccc(COc2ccc(Nc3ncnc4sc5c(c34)CCc3c-5cnn3CCn3ccnc3)cc2Cl)c1` [Example 83, N-{3-chloro-4-[(3-fluorobenzyl)oxy]phenyl}-3-[2-(1H-imidazol-1-yl)ethyl]-4,5-dihydro-3H-pyrimido[5′,4′:4,5]thieno[2,3-e]indazol-6-amine]: the IC50 in assay [1] is not above 5 µM; in assay [2], not above 1 µM.
For `CS(=O)(=O)CCNC[C@@H](O)Cn1cc2c(n1)CCc1c-2sc2ncnc(Nc3ccc(OCc4cccc(F)c4)c(Cl)c3)c12` [Example 154, (2R)-1-[6-({3-chloro-4-[(3-fluorobenzyl)oxy]phenyl}amino)-4,5-dihydro-2H-pyrimido[5′,4′:4,5]thieno[2,3-e]indazol-2-yl]-3-{[2-(methylsulfonyl)ethyl]amino} propan-2-ol trifluoroacetate (salt)], the IC50 in assay [1] was not above 50 µM; in assay [2], not above 1 µM.
In the case of `CN(C)CCNCCn1cc2c(n1)CCc1c-2sc2ncnc(Nc3ccc(F)c(Cl)c3)c12` [Example 16, N′-(2-{6-[(3-chloro-4-fluorophenyl)amino]-4,5-dihydro-2H-pyrimido[5′,4′:4,5]thieno[2,3-e]indazol-2-yl}ethyl)-N,N-dimethylethane-1,2-diamine], the IC50 in assay [1] and in assay [2] was not above 5 µM in each case.
As to `CN1CCN(CCn2cc3c(n2)CCc2c-3sc3ncnc(Nc4ccc(F)c(Cl)c4)c23)CC1` [Example 8, N-(3-chloro-4-fluorophenyl)-2-[2-(4-methylpiperazin-1-yl)ethyl]-4,5-dihydro-2H-pyrimido[5′,4′:4,5]thieno[2,3-e]indazol-6-amine], the IC50 in assay [1] was not above 5 µM; in assay [2], not above 1 µM.
For the molecule `CN1CCN(CCn2cc3c(n2)CCc2c-3sc3ncnc(Nc4ccc5nn(Cc6cccc(F)c6)cc5c4)c23)CC1` [Example 327, N-[2-(3-fluorobenzyl)-2H-indazol-5-yl]-2-[2-(4-methylpiperazin-1-yl)ethyl]-4,5-dihydro-2H-pyrimido[5′,4′:4,5]thieno[2,3-e]indazol-6-amine], the IC50 in assay [1] and in assay [2] was not above 5 µM each time.
As for `O[C@@H]1CCN(CCn2cc3c(n2)CCc2c-3sc3ncnc(Nc4ccc(F)c(Cl)c4)c23)C1` [Example 33, (3R)-1-(2-{6-[(3-chloro-4-fluorophenyl)amino]-4,5-dihydro-2H-pyrimido[5′,4′:4,5]thieno[2,3-e]indazol-2-yl}ethyl)-pyrrolidin-3-ol], the IC50 in assay [1] and in assay [2] was not above 5 µM throughout.
As to `Cc1cc(Nc2ncnc3sc4c(c23)CCc2c-4cnn2CCN2CCN(C)CC2)ccc1O` [Example 316, 2-methyl-4-({3-[2-(4-methylpiperazin-1-yl)ethyl]-4,5-dihydro-3H-pyrimido[5′,4′:4,5]thieno[2,3-e]indazol-6-yl}amino)phenol], the IC50 in assay [1] and in assay [2] was not above 50 µM throughout.
Regarding `CN1CCN(CCn2cc3c(n2)CCc2c-3sc3ncnc(Nc4ccc(OCc5cccc(C(F)(F)F)c5)c(Cl)c4)c23)CC1` [Example 328, N-(3-chloro-4-{[3-(trifluoromethyl)benzyl]oxy}phenyl)-2-[2-(4-methylpiperazin-1-yl)ethyl]-4,5-dihydro-2H-pyrimido[5′,4′:4,5]thieno[2,3-e]indazol-6-amine], the IC50 in assay [1] and in assay [2] was not above 5 µM throughout.
`COCCN(C)CCn1cc2c(n1)CCc1c-2sc2ncnc(Nc3ccc(F)c(Cl)c3)c12` [Example 10, N-(3-chloro-4-fluorophenyl)-2-{2-[(2-methoxyethyl)(methyl)amino]ethyl}-4,5-dihydro-2H-pyrimido[5′,4′:4,5]thieno[2,3-e]indazol-6-amine]: the IC50 in assay [1] and in assay [2] was not above 5 µM each time.
As to `NC[C@@H](O)Cn1ncc2c1CCc1c-2sc2ncnc(Nc3ccc(OCc4cccc(F)c4)c(Cl)c3)c12` [Example 162, (2R)-1-amino-3-[6-({3-chloro-4-[(3-fluorobenzyl)oxy]phenyl}amino)-4,5-dihydro-3H-pyrimido[5′,4′:4,5]thieno[2,3-e]indazol-3-yl]propan-2-ol trifluoroacetate (salt)], the values for the IC50 in assay [1] and in assay [2] were not above 50 µM and not above 5 µM, respectively.
On to `Fc1cccc(COc2ccc(Nc3ncnc4sc5c(c34)CCc3nn(CCN4CCC(N6CCCCC6)CC4)cc3-5)cc2Cl)c1` [Example 70, 2-[2-(1,4′-bipiperidin-1′-yl)ethyl]-N-{3-chloro-4-[(3-fluorobenzyl)oxy]phenyl}-4,5-dihydro-2H-pyrimido[5′,4′:4,5]thieno[2,3-e]indazol-6-amine], for which the figures for the IC50 in assay [1] and in assay [2] were not above 5 µM and not above 1 µM, respectively.
With `O=C(CN(CCO)CCO)N1CCC(Cn2cc3c(n2)CCc2c-3sc3ncnc(Nc4ccc(OCc5cccc(F)c5)c(Cl)c4)c23)CC1` [Example 240, 2,2′-{[2-(4-{[6-({3-chloro-4-[(3-fluorobenzyl)oxy]phenyl}amino)-4,5-dihydro-2H-pyrimido[5′,4′:4,5]thieno[2,3-e]indazol-2-yl]methyl}piperidin-1-yl)-2-oxoethyl]imino}diethanol], the values for the IC50 in assay [1] and in assay [2] were not above 5 µM and not above 1 µM, respectively.
As to `Cc1cccc(COc2ccc(Nc3ncnc4sc5c(c34)CCc3nn(CCN4CCOCC4)cc3-5)cc2Cl)n1` [Example 119, N-{3-chloro-4-[(6-methylpyridin-2-yl)methoxy]phenyl}-2-(2-morpholin-4-ylethyl)-4,5-dihydro-2H-pyrimido[5′,4′:4,5]thieno[2,3-e]indazol-6-amine], the IC50 in assay [1] is not above 50 µM; in assay [2], not above 5 µM.
On the same counts, the results for `O=C(Cn1cc2c(n1)CCc1c-2sc2ncnc(Nc3ccc(OCc4cccc(F)c4)c(Cl)c3)c12)N(CCO)CCO` [Example 187, 2-[6-({3-chloro-4-[(3-fluorobenzyl)oxy]phenyl}amino)-4,5-dihydro-2H-pyrimido[5′,4′:4,5]thieno[2,3-e]indazol-2-yl]-N,N-bis(2-hydroxyethyl)acetamide] are not above 50 µM and not above 1 µM.
Turning to `CN(C)[C@@H]1CCN(CC(=O)N2CCC(n3cc4c(n3)CCc3c-4sc4ncnc(Nc5ccc(OCc6cccc(F)c6)c(Cl)c5)c34)CC2)C1` [Example 219, N-{3-chloro-4-[(3-fluorobenzyl)oxy]phenyl}-2-(1-{[(3R)-3-(dimethylamino)pyrrolidin-1-yl]acetyl}piperidin-4-yl)-4,5-dihydro-2H-pyrimido[5′,4′:4,5]thieno[2,3-e]indazol-6-amine], the results for the IC50 in assay [1] and in assay [2] were not above 5 µM and not above 1 µM, respectively.
